Here are results for four molecules from ChEMBL document CHEMBL1122030, “2-Arylpyrazolo[4,3-c]quinolin-3-ones: novel agonist, partial agonist, and antagonist of benzodiazepines” (J Med Chem, 1982).

“And” between values parts separate entries of the source, which are not always exact repeats. Equal values may be shown once.

The test system of assay [1] is Rattus norvegicus. Nature of the assay: (§1) Effect on anti-convulsive 5.4 mg/kg Diazepam peroral dose in rats given 24 mg/kg iv metrazol, number of rats protected (of 6). In kind it is functional.
Assay [2] relates to Rattus norvegicus. Nature of the assay: Anticonvulsant efficacy when administered perorally was determined in rat metrazole anticonvulsant test; Calculated from responses at 1,3 and 10 mg/kg doses. Conditions: route oral. Format: functional.
Assay [3] concerns Rattus norvegicus. Nature of the assay: Antianxiety effect in cook-davidson behavior test at 1 mg/kg of compound administered perorally in rats expressed as mean percent change. In kind it is functional. Conditions: route oral.
The subject of assay [4] is Rattus norvegicus. Nature of the assay: Antianxiety effect was assessed by the cook-davidson behavior test at 3 mg/kg of compound administered perorally. Conditions: route oral. In kind it is functional.
Assay [5] concerns the target GABA-A receptor; anion channel. Nature of the assay: In vitro inhibition of binding to GABA-A central benzodiazepine-receptor of rat brain.
For assay [6], the system named is Rattus norvegicus. Nature of the assay: Antianxiety effect was assessed by the cook-davidson behavior test at 10 mg/kg of compound administered perorally. Format: functional. The conditions noted are these: route oral.
Assay [7] relates to Rattus norvegicus. Nature of the assay: Antianxiety effect in cook-davidson behavior test at 3 mg/kg of compound administered perorally in rats expressed as mean percent change. Conditions: route oral. Format: functional.
Assay [8] deals with Rattus norvegicus. Nature of the assay: Antianxiety effect in cook-davidson behavior test at 10 mg/kg of compound administered perorally in rats expressed as mean percent change. In kind it is functional. The conditions noted are these: route oral.
The species named for assay [9] is Rattus norvegicus. Nature of the assay: Antianxiety effect was assessed by the cook-davidson behavior test. In kind it is functional.
In assay [10] the test system is Rattus norvegicus. Nature of the assay: Antianxiety effect was assessed by the cook-davidson behavior test at 1 mg/kg of compound administered perorally. The conditions noted are these: route oral. In kind it is functional.
Assay [11] relates to Rattus norvegicus. Nature of the assay: Anticonvulsant efficacy when administered perorally was determined in rat metrazole anticonvulsant test. In kind it is functional. The conditions noted are these: po.
For assay [12], the system named is Rattus norvegicus. Nature of the assay: Antianxiety effect was assessed by the cook-davidson behavior test at 30 mg/kg of compound administered perorally. The conditions noted are these: route oral. In kind it is functional.
Assay [13] concerns Rattus norvegicus. Nature of the assay: Antianxiety effect in cook-davidson behavior test at 30 mg/kg of compound administered perorally in rats expressed as mean percent change. Format: functional. Conditions: route oral.
In assay [14] the target is T1, GABA-A receptor; anion channel (Rattus norvegicus) (UniProt O09028+P15431+P18506+P18508+P19969+P20236+P23574+P23576+P28471+P28473+P30191+P62813+P63079+P63138+Q91ZM7+Q9ES14).
Description: (§2) In vivo inhibition of binding to GABA-A central benzodiazepine-receptor after po administration in rats
Assay [15] addresses T1, GABA-A receptor; anion channel (Rattus norvegicus). The source holds these as a separate data set.
Description: as §2
Assay [16] concerns Rattus norvegicus. The assay is described as §1. In kind it is functional. The source holds these as a separate data set.
The subject of assay [17] is Rattus norvegicus. Described as §1. In kind it is functional. This is another data set of the same source.
Assay [18] concerns Rattus norvegicus. The assay is described as §1. Format: functional. This is another data set of the same source.
Assay [19] deals with T1, GABA-A receptor; anion channel (Rattus norvegicus). The source holds these as a separate data set.
Description: In vivo inhibition of binding to GABA-A central benzodiazepine-receptor after ip administration in rats

In general, ED50 refers to the dose that gives a 50% effect, or the effect in half of the subjects. What is called IC50 is the concentration that inhibits the measured activity by half. Lower therefore signals greater potency. Turning to `COc1ccc(-n2nc3c4ccccc4[nH]cc-3c2=O)cc1`, in the assay on Rattus norvegicus [1], the “No. of animals protected” value stood at 4. The ED50 in the assay with Rattus norvegicus [2] is 2.81 mg/kg. The VI30 was found to be 6.5% in the assay on Rattus norvegicus [3], 7.8% in the assay on Rattus norvegicus [7] and 5.7% in the assay on Rattus norvegicus [8]. Moreover, the FR10 treated in the assay with Rattus norvegicus [4] is listed as 124; in the assay on Rattus norvegicus [6] it was 100; in the assay on Rattus norvegicus [10], 98. For the same molecule, the IC50 in assay [5] was 0.1 nM. In addition, the FR10 control in the assay listed under Rattus norvegicus [9] was 61 and 65 and 50.

Regarding `CN1C(=O)CN=C(c2ccccc2)c2cc(Cl)ccc21` [DIAZEPAM], the ED50 in the assay with Rattus norvegicus [11] turned out to be 4 mg/kg. For the same molecule, the VI30 is 5.9% in the assay with Rattus norvegicus [3], 6.1% in the assay with Rattus norvegicus [7], 3.6% with Rattus norvegicus [8] and -23.8% in the assay on Rattus norvegicus [13]. Also, the FR10 treated in the assay on Rattus norvegicus [12] stood at 240; with Rattus norvegicus [4] it was 131; in the assay with Rattus norvegicus [6], 206; in the assay on Rattus norvegicus [10], 97. Besides, the FR10 control in the assay filed under Rattus norvegicus [9] was 82 and 85 and 63 and 76. For the same molecule, the ID50 in assay [14] was 5 mg/kg.

`O=C1C2C=Nc3ccccc3C2=NN1c1ccccc1` (stereo not given) [CGS-8216]: the “No. of animals protected” value came out at 5 in the assay with Rattus norvegicus [1], 1 with Rattus norvegicus [16], 0 in the assay on Rattus norvegicus [17] and 0 in the assay on Rattus norvegicus [18]. This molecule also came in with an ID50 in [15] of 7.06 mg/kg. In the assay with Rattus norvegicus [3], the VI30 came out at 0.1%. Besides, in [5], the IC50 is 0.4 nM. Besides, the FR10 treated with Rattus norvegicus [10] turned out to be 87.

In turn, `O=C1C2C=Nc3ccccc3C2=NN1c1ccc(Cl)cc1` (stereo not given) [CGS-9896] returned an ED50 in the assay on Rattus norvegicus [11] of 0.9 mg/kg. The VI30 with Rattus norvegicus [3] worked out at 0.1%; in the assay with Rattus norvegicus [7], 10.2%; in the assay with Rattus norvegicus [8] it was 18.2%; with Rattus norvegicus [13], 7.5%. Moreover, the FR10 treated stood at 234 in the assay with Rattus norvegicus [4], 230 in the assay on Rattus norvegicus [6] and 217 in the assay on Rattus norvegicus [10]. This molecule registered an IC50 in assay [5] of 0.6 nM. In addition, in assay [19], the ID50 was found to be 3.3 mg/kg. In addition, the FR10 control in the assay listed under Rattus norvegicus [9] is 67 and 112 and 81 and 73.
